Measured values: PubChem BioAssay AID248 (DTP/NCI, 2004)
Several values for one entry are separate records, joined by “and”; a condition that tells them apart may be missing. Identical values can stand only once. Inconclusive results and toxic doses are left out. Peptide text beside a SMILES is read from it.

System: L1210 leukemia ip in BDF1 mice, survival T/C
Assay: NCI In Vivo Anticancer Drug Screen. Data for tumor model L1210 Leukemia (intraperitoneal) in B6D2F1 (BDF1) mice
Details: endpoint: mean survival time, higher = longer survival
In short: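 Tumor was transplanted into mice, which were then dosed with test compound or vehicle alone. Survival was recorded for each group, and the treated figure was expressed relative to the control figure.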

[1] = dose: 100.0 mg/kg/injection, schedule: Q04DX003 (ip), vehicle: Klucel (hydroxypropylcellulose) (HPC)
[2] = dose: 100.0 mg/kg/injection, schedule: Q04DX003 (ip), vehicle: saline with Tween-80
[3] = dose: 100.0 mg/kg/injection, schedule: Q04DX003 (ip), vehicle: saline
[4] = dose: 200.0 mg/kg/injection, schedule: Q04DX003 (ip), vehicle: saline
[5] = dose: 400.0 mg/kg/injection, schedule: Q04DX003 (ip), vehicle: saline
[6] = dose: 200.0 mg/kg/injection, schedule: Q04DX003 (ip), vehicle: Klucel (hydroxypropylcellulose) (HPC)
[7] = dose: 400.0 mg/kg/injection, schedule: Q04DX003 (ip), vehicle: Klucel (hydroxypropylcellulose) (HPC)
[8] = dose: 100.0 mg/kg/injection, schedule: Q01DX009 (ip), vehicle: Klucel (hydroxypropylcellulose) (HPC)
[9] = dose: 200.0 mg/kg/injection, schedule: Q01DX009 (ip), vehicle: Klucel (hydroxypropylcellulose) (HPC)
[10] = dose: 100.0 mg/kg/injection, schedule: Q04DX002 (ip), vehicle: Klucel (hydroxypropylcellulose) (HPC)
[11] = dose: 200.0 mg/kg/injection, schedule: Q04DX002 (ip), vehicle: Klucel (hydroxypropylcellulose) (HPC)
[12] = dose: 400.0 mg/kg/injection, schedule: Q04DX002 (ip), vehicle: Klucel (hydroxypropylcellulose) (HPC)
[13] = dose: 100.0 mg/kg/injection, schedule: Q01DX001 (ip), vehicle: carboxymethylcellulose (CMC)
[14] = dose: 200.0 mg/kg/injection, schedule: Q01DX001 (ip), vehicle: carboxymethylcellulose (CMC)

## FC(F)(F)c1nc2nc(Cl)c(Cl)nc2[nH]1
dose: 6.25 mg/kg/injection, schedule: Q01DX009 (ip), vehicle: saline
  T/C: 99 % of control
dose: 12.5 mg/kg/injection, schedule: Q01DX009 (ip), vehicle: saline
  T/C: 94 % of control
dose: 25.0 mg/kg/injection, schedule: Q01DX001 (ip), vehicle: saline with Tween-80
  T/C: 106 % of control
dose: 25.0 mg/kg/injection, schedule: Q01DX009 (ip), vehicle: other
  T/C: 95 % of control
dose: 25.0 mg/kg/injection, schedule: Q01DX009 (ip), vehicle: saline
  T/C: 103 % of control
dose: 33.0 mg/kg/injection, schedule: Q01DX009 (ip), vehicle: other
  T/C: 113 % of control
dose: 44.0 mg/kg/injection, schedule: Q04DX003 (ip), vehicle: other
  T/C: 121 % of control
dose: 44.0 mg/kg/injection, schedule: Q04DX003 (ip), vehicle: saline sonified
  T/C: 94 % of control
dose: 44.0 mg/kg/injection, schedule: Q04DX003 (ip), vehicle: saline with Tween-80
  T/C: 102 % of control and 103 % of control
dose: 50.0 mg/kg/injection, schedule: Q01DX001 (ip), vehicle: saline with Tween-80
  T/C: 96 % of control
dose: 50.0 mg/kg/injection, schedule: Q01DX009 (ip), vehicle: saline
  T/C: 116 % of control
dose: 66.0 mg/kg/injection, schedule: Q04DX003 (ip), vehicle: saline sonified
  T/C: 122 % of control
dose: 66.0 mg/kg/injection, schedule: Q04DX003 (ip), vehicle: saline with Tween-80
  T/C: 109 % of control
dose: 100.0 mg/kg/injection, schedule: Q01DX001 (ip), vehicle: saline with Tween-80
  T/C: 110 % of control
[1]
  T/C: 154 % of control
dose: 100.0 mg/kg/injection, schedule: Q04DX003 (ip), vehicle: other
  T/C: 176 % of control
dose: 100.0 mg/kg/injection, schedule: Q04DX003 (ip), vehicle: saline sonified
  T/C: 159 % of control
[2]
  T/C: 153 % of control and 156 % of control
dose: 150.0 mg/kg/injection, schedule: Q04DX003 (ip), vehicle: saline with Tween-80
  T/C: 102 % of control

## CCCCCCCCP(=O)(O)CCCCCCCC
dose: 25.0 mg/kg/injection, schedule: Q04DX003 (ip), vehicle: saline with Tween-80
  T/C: 96 % of control
dose: 50.0 mg/kg/injection, schedule: Q04DX003 (ip), vehicle: saline with Tween-80
  T/C: 87 % of control
[2]
  T/C: 91 % of control

## COC(=O)c1cn(C2OC(CO)C(O)C2O)c2ncnc(N)c12 (stereo not given)
dose: 20.0 mg/kg/injection, schedule: Q01DX001 (ip), vehicle: water
  T/C: 108 % of control
dose: 40.0 mg/kg/injection, schedule: Q01DX001 (ip), vehicle: water
  T/C: 89 % of control

## CSCCC(NC(=O)C(N)C(C)C)C(=O)O (stereo not drawn) (H-Val-Met-OH; configuration not given here)
[3]
  T/C: 100 % of control
[4]
  T/C: 108 % of control
[5]
  T/C: 103 % of control

## CC(C)N=C(c1ccccc1)N(O)c1ccccc1
dose: 75.0 mg/kg/injection, schedule: Q01DX001 (ip), vehicle: saline
  T/C: 93 % of control
dose: 150.0 mg/kg/injection, schedule: Q01DX001 (ip), vehicle: saline
  T/C: 101 % of control
dose: 300.0 mg/kg/injection, schedule: Q01DX001 (ip), vehicle: saline
  T/C: 91 % of control

## CCOC(=O)/C=C1/Nc2cc(Cl)c(Cl)cc2NC1=O
[2]
  T/C: 97 % of control
dose: 200.0 mg/kg/injection, schedule: Q04DX003 (ip), vehicle: saline with Tween-80
  T/C: 95 % of control
dose: 400.0 mg/kg/injection, schedule: Q04DX003 (ip), vehicle: saline with Tween-80
  T/C: 89 % of control

## Cc1ccc(NC(=O)N(CCCl)N=O)c(NC(=O)N(CCCl)N=O)c1
dose: 30.0 mg/kg/injection, schedule: Q01DX001 (ip), vehicle: carboxymethylcellulose (CMC)
  T/C: 117 % of control
dose: 33.0 mg/kg/injection, schedule: Q01DX001 (ip), vehicle: carboxymethylcellulose (CMC)
  T/C: 107 % of control
dose: 33.0 mg/kg/injection, schedule: Q01DX009 (ip), vehicle: carboxymethylcellulose (CMC)
  T/C: 108 % of control
dose: 50.0 mg/kg/injection, schedule: Q01DX009 (ip), vehicle: carboxymethylcellulose (CMC)
  T/C: 88 % of control
dose: 75.0 mg/kg/injection, schedule: Q01DX001 (ip), vehicle: carboxymethylcellulose (CMC)
  T/C: 113 % of control
dose: 112.0 mg/kg/injection, schedule: Q01DX001 (ip), vehicle: carboxymethylcellulose (CMC)
  T/C: 96 % of control

## CCCCCCCCCCCCCCCCCC(S(=O)(=O)CC)S(=O)(=O)CC
[1]
  T/C: 93 % of control
[6]
  T/C: 93 % of control
[7]
  T/C: 90 % of control

## COc1ccc2c(ccc3c2ncc2c(=O)[nH][nH]c23)c1
dose: 50.0 mg/kg/injection, schedule: Q01DX009 (ip), vehicle: Klucel (hydroxypropylcellulose) (HPC)
  T/C: 92 % of control
[8]
  T/C: 92 % of control
[9]
  T/C: 92 % of control

## COc1ccc(OC)c(NC(=O)Nc2nccs2)c1
dose: 100.0 mg/kg/injection, schedule: Q01DX001 (ip), vehicle: Klucel (hydroxypropylcellulose) (HPC)
  T/C: 95 % of control
[8]
  T/C: 97 % of control
[10]
  T/C: 97 % of control and 98 % of control
[1]
  T/C: 96 % of control and 122 % of control
dose: 200.0 mg/kg/injection, schedule: Q01DX001 (ip), vehicle: Klucel (hydroxypropylcellulose) (HPC)
  T/C: 90 % of control
[9]
  T/C: 88 % of control
[11]
  T/C: 96 % of control and 90 % of control
[6]
  T/C: 100 % of control
dose: 400.0 mg/kg/injection, schedule: Q01DX001 (ip), vehicle: Klucel (hydroxypropylcellulose) (HPC)
  T/C: 95 % of control
dose: 400.0 mg/kg/injection, schedule: Q01DX009 (ip), vehicle: Klucel (hydroxypropylcellulose) (HPC)
  T/C: 91 % of control
[12]
  T/C: 96 % of control and 101 % of control
[7]
  T/C: 102 % of control and 116 % of control

## O=CNc1c(Cl)c(Cl)c2c(c1Cl)Cc1cc(Cl)ccc1-2
dose: 50.0 mg/kg/injection, schedule: Q01DX001 (ip), vehicle: carboxymethylcellulose (CMC)
  T/C: 94 % of control
dose: 50.0 mg/kg/injection, schedule: Q04DX003 (ip), vehicle: acetone
  T/C: 97 % of control
dose: 75.0 mg/kg/injection, schedule: Q01DX009 (ip), vehicle: saline with Tween-80
  T/C: 108 % of control
[13]
  T/C: 91 % of control
dose: 100.0 mg/kg/injection, schedule: Q01DX001 (ip), vehicle: saline
  T/C: 91 % of control
dose: 100.0 mg/kg/injection, schedule: Q04DX003 (ip), vehicle: acetone
  T/C: 105 % of control
dose: 150.0 mg/kg/injection, schedule: Q01DX009 (ip), vehicle: saline with Tween-80
  T/C: 109 % of control
[14]
  T/C: 102 % of control
dose: 200.0 mg/kg/injection, schedule: Q01DX001 (ip), vehicle: saline
  T/C: 91 % of control
dose: 200.0 mg/kg/injection, schedule: Q04DX003 (ip), vehicle: acetone
  T/C: 94 % of control

## O=c1[nH]c(=S)nc2nc[nH]n12
[3]
  T/C: 97 % of control
[4]
  T/C: 102 % of control
[5]
  T/C: 105 % of control

## CNC(=S)N/N=C/c1cc(Cl)cc(Cl)c1
dose: 100.0 mg/kg/injection, schedule: Q01DX001 (ip), vehicle: other
  T/C: 102 % of control
dose: 200.0 mg/kg/injection, schedule: Q01DX001 (ip), vehicle: other
  T/C: 102 % of control
dose: 400.0 mg/kg/injection, schedule: Q01DX001 (ip), vehicle: other
  T/C: 98 % of control

## CC1([N+](=O)[O-])COP(=O)(Nc2ccc(F)cc2)OC1 (stereo not given)
[13]
  T/C: 100 % of control
[14]
  T/C: 94 % of control

## C=C1C(=O)OC2C1C1CC1(C)C1CC(OC(C)=O)C(C)C21O (stereo not given)
dose: 50.0 mg/kg/injection, schedule: Q01DX001 (ip), vehicle: water
  T/C: 103 % of control
dose: 100.0 mg/kg/injection, schedule: Q01DX001 (ip), vehicle: water
  T/C: 92 % of control
dose: 200.0 mg/kg/injection, schedule: Q01DX001 (ip), vehicle: water
  T/C: 103 % of control

## OC1COC(CCl)OC1C1OC(CCl)OCC1O (stereo not given)
[10]
  T/C: 96 % of control
[11]
  T/C: 96 % of control
[12]
  T/C: 96 % of control

## O=S(=O)(Nc1cccc2ccccc12)c1cccc2cccnc12
[1]
  T/C: 90 % of control
[6]
  T/C: 91 % of control
[7]
  T/C: 91 % of control

## Clc1ccc(/C=C/c2cccc(/C=C/c3ccc(Cl)cc3)n2)cc1
[1]
  T/C: 96 % of control
[6]
  T/C: 97 % of control
[7]
  T/C: 97 % of control

## O=C1OCC/C1=C/c1cccc(O)c1
dose: 3.12 mg/kg/injection, schedule: Q04DX002 (ip), vehicle: Klucel (hydroxypropylcellulose) (HPC)
  T/C: 97 % of control
dose: 6.25 mg/kg/injection, schedule: Q04DX002 (ip), vehicle: Klucel (hydroxypropylcellulose) (HPC)
  T/C: 108 % of control
dose: 12.5 mg/kg/injection, schedule: Q04DX002 (ip), vehicle: Klucel (hydroxypropylcellulose) (HPC)
  T/C: 101 % of control
